Measurements from patent US7101878B1 (Agouron Pharmaceuticals, Inc., priority 1998, dated 2006).
pIC50: −log10 of the molar value.

Legend:
human GnRH receptor = biological target: T1, human GnRH receptor (Homo sapiens, UniProt P30968); test: Radioligand binding, 125I-GnRH-A displacement, membranes of HEK 293 cells with human GnRH receptor; conditions: read-out: hGnRH IC50
T1 construct: expressed in transfected cells; host or cells: HEK 293 (hGnRH-R/293, from Dr. Stuart Sealfon)
T1 sequence (P30968 1-328): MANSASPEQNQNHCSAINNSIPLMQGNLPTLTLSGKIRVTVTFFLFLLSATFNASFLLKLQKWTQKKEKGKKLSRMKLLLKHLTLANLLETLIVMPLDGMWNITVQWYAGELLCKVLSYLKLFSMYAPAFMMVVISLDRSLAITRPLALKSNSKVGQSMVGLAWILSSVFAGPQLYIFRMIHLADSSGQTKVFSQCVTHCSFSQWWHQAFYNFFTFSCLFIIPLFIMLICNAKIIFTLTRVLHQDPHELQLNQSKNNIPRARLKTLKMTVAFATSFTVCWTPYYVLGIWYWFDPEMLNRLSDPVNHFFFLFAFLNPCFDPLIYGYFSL
Outline: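 After filtration and PBS washes, bound radioactivity was counted by scintillation and IC50 derived. Identical conditions applied for non-human receptors.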

mouse GnRH receptor = biological target: T2, mouse GnRH receptor (Mus musculus, UniProt Q01776); test: Radioligand binding, 125I-GnRH-A, 293 cells expressing mouse GnRH receptors; conditions: read-out: mGnRH IC50
T2 construct: expressed in transfected cells; host or cells: 293 cells
T2 sequence (Q01776 1-327): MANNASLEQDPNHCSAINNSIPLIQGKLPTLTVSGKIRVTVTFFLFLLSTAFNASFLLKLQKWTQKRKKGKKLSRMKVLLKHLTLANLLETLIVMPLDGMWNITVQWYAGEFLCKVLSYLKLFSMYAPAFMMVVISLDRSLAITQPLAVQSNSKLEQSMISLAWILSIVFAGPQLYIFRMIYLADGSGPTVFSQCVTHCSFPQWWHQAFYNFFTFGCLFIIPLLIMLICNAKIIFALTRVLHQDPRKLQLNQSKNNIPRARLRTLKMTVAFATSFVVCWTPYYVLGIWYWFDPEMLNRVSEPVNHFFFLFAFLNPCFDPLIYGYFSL
Outline: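 Bound label captured on 0.1% polyethyleneimine-treated GF/C filters, washed three times with PBS, counted. IC50 derived; identical set-up for every species.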

[1] = Metabolism rate, pmol/min/mg at 1 μM, human; assay type: in vitro ADME; conditions: 1 μM compound
[2] = Metabolism rate, pmol/min/mg at 1 μM, rat male; assay type: in vitro ADME; conditions: 1 μM compound
rat GnRH receptor = biological target: T3, rat GnRH receptor (Rattus norvegicus, UniProt P30969); test: Radioligand binding, 125I-GnRH-A, rat pituitary membranes; set-up: membranes were prepared from rat pituitary; from tissue; host or cells: rat pituitary; conditions: read-out: rGnRH IC50
T3 sequence (P30969 1-327): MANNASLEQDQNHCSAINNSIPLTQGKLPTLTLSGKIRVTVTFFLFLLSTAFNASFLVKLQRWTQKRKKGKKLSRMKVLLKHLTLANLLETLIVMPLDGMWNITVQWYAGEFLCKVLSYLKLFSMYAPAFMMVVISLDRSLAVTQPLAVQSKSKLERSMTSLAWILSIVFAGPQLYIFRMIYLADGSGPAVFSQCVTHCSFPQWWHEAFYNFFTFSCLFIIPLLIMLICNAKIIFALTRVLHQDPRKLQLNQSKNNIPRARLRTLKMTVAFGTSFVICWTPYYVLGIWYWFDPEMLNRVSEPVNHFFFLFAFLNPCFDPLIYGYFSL
Protocol: All compounds were diluted in 1% DMSO (final assay concentration) in binding assay buffer. […] Reactions were terminated by rapid filtration onto 96-well Packard GF/C filters soaked in 0.1% polyethyleneimine. Filters were washed three times with PBS buffer, dried and counted on a Packard Topcount by liquid scintillation counting.
Assay conditions were identical for assessing compound activities at other species. […] IC50 values for control peptides and test compounds were calculated utilizing GraphPad Prism™ software.
The reaction mixture was vortexed and incubated for 1 min at room temperature. After one min, the mixture was vortexed and allowed to incubate for an additional minute. 2 ml of 0.5 M acetic acid/1% BSA was added to the reaction tube and the mixture was added to a C18 Sep-Pak cartridge. The cartridge was washed with subsequent washes of 5 ml H2O and 5 ml 0.5M acetic acid and then eluted with 5×1 ml of 60% CH3CN/40% 0.5M acetic acid. The eluate was diluted with 3× volume of HPLC buffer A (0.1% TFA in H2O) and loaded onto a C18 column. […] The radioactive fractions (750 ed/fraction) are collected into clean polypropylene tubes containing 100 μl of 10% BSA. Fractions were assessed for biological activity by radioligand binding.

[3] = Pharmacokinetic studies / bioavailability in rats; assay type: in vivo, rat; conditions: for Cmax / Tmax / half-life: female, rat, plasma; for Cmax / Tmax: po, 10 mg/kg, p.o. 10 mg/kg
[4] = system: LH levels in castrated rats; test: Castrated male rat model, LH suppression; assay type: in vivo
Text: Experimental Protocol: Male Sprague-Dawley (225-250 g) rats were castrated and allowed 10 days postoperative recovery. Ten days post castration animals were instrumented with indwelling femoral venous and arterial catheters to facilitate remote infusions and blood sampling. On the day of the experiment, animals were allowed to acclimate to the procedure room while residing in their home cage. Basal blood samples were drawn from all animals. Following basal sampling, either vehicle (10% DMSO, 10% cremophor/saline), Antide (1.0 μg) or compound 11 (10 mg/kg) was administered intravenously. Blood samples were drawn 10, 60, 90, 120, 180, 240 minutes after injections. Blood was centrifuged, serum collected and stored in −70° freezer until assayed. Serum samples were analyzed using DSL-4600 ACTIVE LH coated-tube immunoradiometric assay kit from Diagnostic Systems Laboratories, Inc.
Surgical removal of the gonads removes circulating testosterone and eliminates the negative feedback of testosterone on the hypothalamus. […] This model seems suitable for evaluating small molecule GnRH antagonists.
Male Sprague-Dawley ([…]) rats were castrated via the scrotal approach under halothane anesthesia. Animals were allowed 14 days post operative recovery prior to study. Thirteen days following castration, animals were anesthetized with halothane and instrumented with indwelling jugular vein cannula. Details of the cannulation procedure have been described previously {Harms and Ojeda, 1974)}. On study day, animals were allowed to acclimate to the procedure room while residing in their home cage. Basal blood samples were drawn from all animals. Immediately following basal sampling, vehicle or test compounds were administered by various routes. The routes of administration employed were intravenous (iv), intramuscular (im), intraperitoneal (ip), subcutaneous (sc) and oral (po). Blood samples were drawn into heparin containing tubes at multiple time points post treatment. Blood was centrifuged immediately, plasma collected and stored in −20° freezer until assayed. Plasma samples were analyzed using DSL-4600 ACTIVE LH coated-tube immunoradiometric assay kit from Diagnostic Systems Laboratories, Inc.
Formulation #1 (denoted with superscript 1): 10% DMSO, 10% Cremophor EL and 80% physiological saline.
Formulation #2 (denoted with superscript 2): 10% Cremophor EL and 90% physiological saline.

[5] = rat female, 5 mg/ml solution in 10% DMSO 10% cremophor 80% saline

| SMILES | pIC50 (human GnRH receptor) | pIC50 (mouse GnRH receptor) | Human pmol/min/mg 1 μM [1] | Rat male pmol/min/mg 1 μM [2] | pIC50 (rat GnRH receptor) | other results |
| --- | --- | --- | --- | --- | --- | --- |
| COCCNc1nccc(NCc2cccc(CNC(=O)c3ccc(Cc4cc5c(cc4C)C(C)(C)CCC5(C)C)o3)c2)n1 [Compound 154] | 6.82 | 7.44 | 241 pmol/min/mg | 4481 pmol/min/mg | 7.66 | – |
| Cc1cc2c(cc1Cc1ccc(C(=O)NCc3cccc4ccccc34)o1)C(C)(C)CCC2(C)C [Compound 95] | 7.51 | 7.68 | 283 pmol/min/mg | 3356 pmol/min/mg | 7.22 | – |
| Cc1cc2c(cc1Cc1ccc(C(=O)NCC3CCCC(CNc4ncccn4)C3)o1)C(C)(C)CCC2(C)C (stereo not shown) [Compound 138] | 6.70 | 5.80 | – | – | 5.79 | – |
| Cc1cc2c(cc1Cc1ccc(C(=O)NCc3cccc(CNc4nccc(N5CCOCC5)n4)c3)o1)C(C)(C)CCC2(C)C [Compound 150] | 7.10 | 7.89 | 655 pmol/min/mg | 3334 pmol/min/mg | 8.10 | – |
| Cc1cc2c(cc1Cc1ccc(C(=O)NCC3CCCC(CNC(=O)C(F)(F)F)C3)o1)C(C)(C)CCC2(C)C (stereo not shown) [Compound 105] | 7.66 | 6.70 | – | – | 6.60 | – |
| Cc1cc2c(cc1Cc1ccc(C(=O)NCC3CCC(CNCc4cc(=O)[nH]c(=O)[nH]4)CC3)o1)C(C)(C)CCC2(C)C (stereo not shown) [Compound 91] | 6.92 | 6.10 | – | – | 6.02 | – |
| Cc1cc2c(cc1Cc1ccc(C(=O)NC[C@H]3CC[C@H](CNc4ccnc(NC[C@@H]5CCCO5)n4)CC3)o1)C(C)(C)CCC2(C)C [Compound 174] | 6.66 | 6.24 | – | – | 6.41 | – |

Continued, in another order:

| pIC50 (human GnRH receptor) | pIC50 (mouse GnRH receptor) | Human pmol/min/mg 1 μM [1] | Rat male pmol/min/mg 1 μM [2] | pIC50 (rat GnRH receptor) | SMILES | other results |
| --- | --- | --- | --- | --- | --- | --- |
| 6.89 | 6.16 | 544 pmol/min/mg | – | 6.49 | COc1cccc(OC)c1NC(=O)c1ccc(Cc2c(C)cc(C)cc2C)o1 [Compound 126] | Cmax [3, 5]: 20 nM; Tmax [3, 5]: 0.5 h; half-life ([3]; rat female): 1.9 h; Fp.o. [3, 5]: 2% (10 mg/kg)^10 |
| – | – | – | – | 5.89 | Cc1cc2c(cc1Cc1ccc(C(=O)Nc3cccc(B(O)O)c3)o1)C(C)(C)CCC2(C)C [Compound 119] | % Max LH Suppression ([4]; 5.0 mg/kg iv): 63%; time of % Max LH Suppression ([4]; 5.0 mg/kg iv): 1 h; ≧50% Suppression Duration ([4]; 5.0 mg/kg iv): 1 h; % Max LH Suppression ([4]; 10 mg/kg iv): 61%; time of % Max LH Suppression ([4]; 10 mg/kg iv): 1 h; ≧50% Suppression Duration ([4]; 10 mg/kg iv): 1 h; % Max LH Suppression ([4]; 20 mg/kg ip): 79%; time of % Max LH Suppression ([4]; 20 mg/kg ip): 2 h; ≧50% Suppression Duration ([4]; 20 mg/kg ip): 2 h; % Max LH Suppression ([4]; 20 mg/kg po): 63%; Range of Plasma Conc. ([4]; 20 mg/kg po): 0.1 µM; time of % Max LH Suppression ([4]; 20 mg/kg po): 2 h; ≧50% Suppression Duration ([4]; 20 mg/kg po): 2 h; Range of Plasma Conc. ([4]; 20 mg/kg sc): 0.2 µM |
| 7.35 | 7.80 | 793 pmol/min/mg | 6642 pmol/min/mg | 8.30 | COc1cc(CO)cc(OC)c1NC(=O)c1ccc(Cc2cc3c(cc2C)C(C)(C)CCC3(C)C)o1 [Compound 159] | – |
| 7.12 | 6.85 | 130 pmol/min/mg | 1055 pmol/min/mg | 6.85 | Cc1cc2c(cc1Cc1ccc(C(=O)Nc3ccc4[nH]ncc4c3)o1)C(C)(C)CCC2(C)C [Compound 109] | – |
| 7.30 | 7.66 | – | – | 7.52 | COc1cc(OC)c(C(C)=O)cc1NC(=O)c1ccc(Cc2cc3c(cc2C)C(C)(C)CCC3(C)C)o1 [Compound 170] | Fp.o. ([3]; rat male, p.o. 20 mg/kg, vehicle per footnote (DMSO/cremophor/saline)): 0 (20 mg/kg)^7% |
| 7.10 | 6.98 | – | – | 6.54 | COc1cc(OC)c(NC(=O)c2ccc(Cc3c(OC)cc(C)c(Cl)c3C)o2)c(OC)c1 [Compound 299] | Cmax [3, 5]: 1740 nM; Tmax [3, 5]: 1 h; half-life ([3]; rat female): 2.4 h; Fp.o. [3, 5]: 72% (10 mg/kg)^10 |
| 8.30 | 7.62 | – | – | 7.29 | CCC(C)(C)c1ccc(OC)c(Cc2ccc(C(=O)Nc3c(OC)cccc3OC)o2)c1 [Compound 231] | – |
| 6.46 | – | 1124 pmol/min/mg | – | – | COc1cc(OC)c(NC(=O)c2ccc(Cc3cc(C)cc4c3OCCC4(C)C)o2)c(OC)c1 [Compound 190.5] | – |
